Measurements as given in patent publication EP0812835B1, “OPTICALLY ACTIVE THIAZOLIDINONE DERIVATIVES” (SANKYO COMPANY LIMITED, priority 1995, dated 1996).
Marks after values point to notes of the source that are not given here.

Columns and labels:
aspirin-induced ulcer = experiment: Inhibition of aspirin-induced ulcer; assay type: in vivo, Donryu strain male rats; conditions: for Inhibition rate (%): 1 hour before aspirin, area of ulceration vs control group
Procedure: Inhibition of aspirin-induced ulcer
As a test animal, 10 Donryu strain male rats each weighing 200 g-250 g were used in one group. The rats were fasted before the experiment for 24 hours but they could freely drink water. The test compounds were suspended in 0.5% carboxymethyl cellulose (CMC) solution. Meanwhile, for a control group, 0.5% CMC solution was used.
The test compound was orally administered (0.1 ml/100 g body weight) to the rats and an aspirin solution (150 mg/ml: suspended in 0.5% CMC solution) was orally administered (0.1 ml/100 g body weight) to the rats 1 hour later. Four hours after the administration of the aspirin solution, the rats were sacrificed using carbon dioxide gas and the stomach of each rat was taken out. Into the stomachs were poured 10 ml of 1% formalin solution to allow the stomachs to expand, and the stomachs were immersed in 1% formalin solution in a beaker for about 15-20 minutes. Then, each stomach was cut along the greater curvature thereof and an area of the ulceration in the gastric mucosa was measured by means of an image analysis apparatus [Luzex-F: manufactured by Nireko Co., Ltd.]. The average value of the area of the ulceration of each group was calculated from the area of the ulceration of each rat and the inhibition rate was obtained by comparing the average value of the test group with that of the control group.

Collateral Vessel [1] = experiment: Collateral vessel dilating action by administration into the portal vein (first-pass effect test); assay type: in vivo, Beagle dogs (male); conditions: administered into the portal vein, compared with intravenous administration, 60 minutes
Procedure: Collateral Vessel Dilating Action by Administration into the Portal Vein
While test specimens were prepared according to the method of Test example 1, the animal was laparotomized along the abdominal median line, and a branch of the mesenteric vein was removed and incised so as to administer the test drug into the portal vein. A polyethylene cannula (Atom intravenous catheter 2F) was inserted antegrade into this vein to reside in the portal vein, and then the test drug was administered through it. In order to test the first-pass effect of the test drug, it was first administered intravenously (inguinal vein) to determine collateral vessel dilating action of the drug for 60 minutes. The same test drug was then administered into the portal vein 2 or 3 hours later to determine collateral vessel dilating action for 60 minutes, and those actions were compared with each other.

Collateral Vessel [2] = experiment: Collateral vessel dilating action by intravenous administration (Collateral Index, carotid artery occlusion); assay type: in vivo, Beagle dogs (male); conditions: dose of 0.3 mg/kg, intravenous (inguinal vein), anesthetized dogs
Procedure: Collateral Vessel Dilating Action by Intravenous Administration
Beagle dogs (male) weighing 9 to 13 kg were anesthetized by intravenous injection of pentobarbital at a dose of 30 mg/kg and tested under artificial respiration. In order to measure the pressure of the left carotid artery, a polyethylene cannula (Atom intravenous catheter 2F) was inserted […] into one branch of the left thyroid artery. The left carotid artery upstream from this pressure measurement site was occluded for 1 minute with an arterial clamp, and the pressure immediately before occlusion (P) and the decrease in peripheral pressure (ΔP) were measured. Next, the test drug was administered through another polyethylene cannula inserted into the inguinal vein. The left carotid artery was occluded for 1 minute after 5, 15, 30, 45 and 60 minutes, and pressure immediately before occlusion (Pa) and the decrease in peripheral pressure (ΔPa) each time were measured. Collateral vessel dilating effect (Collateral Index = CI) of the test drug was determined according to the following formula: CI = 100 - (ΔPa/Pa) x 100/(ΔP/P) [formula]

[3] = Stability of compounds (storage, residual ratio by high pressure liquid chromatography); assay type: physicochemical; conditions: for storage stability: in words
Procedure: About 2 mg of the test compound was accurately weighed and placed in a brown bottle. The bottle was left to stand at a dark place at room temperature (24-26°C) for 4 weeks and a residual ratio (%) of the test compound was measured by high pressure liquid chromatography (column: Inertsil ODS-3, eluting solvent: 10 mM (pH=7.0) phosphoric acid buffer/acetonitrile=80/20).

With C[C@@H](CO[N+](=O)[O-])NC(=O)[C@@H]1CSC(=O)N1 [Example 1, (4R)-N-[(1S)-1-Methyl-2-nitroxyethyl]-2-oxothiazolidin-4-vl-carboxamide] the “Inhibition rate (%)” value (aspirin-induced ulcer; 30 mg/kg orally, p<0.05) was 63.58*^) %, the “Inhibition rate (%)” value (aspirin-induced ulcer; 100 mg/kg orally, p<0.005) was 80.15**^) % and the “Inhibition rate (%)” value (aspirin-induced ulcer; 300 mg/kg orally, p<0.005) was 93.17**^) %. The anti-ulcerative action (aspirin-induced ulcer; result in words, summary of Table 4) was “excellent anti-ulcerative action”, the “collateral vessel dilating action” value (Collateral Vessel [1]) was “excellent collateral vessel dilating action” and the “CI(60)” value (Collateral Vessel [2]) was greater than 10. For the same molecule, the “Residual ratio (%)” value ([3]; dark place at room temperature (24-26°C) for 4 weeks, brown bottle) was 101.2%, the storage stability ([3]; as compared with the 1:1 mixture of Example 1 and the (4R),(1R)-isomer) was “excellent storage stability” and the storage stability ([3]; as compared with the (4R),(1R)-isomer) was “excellent storage stability”.

In the case of CCC[C@@H](CO[N+](=O)[O-])NC(=O)[C@@H]1CSC(=O)N1 [Example 5, (4R)-N-[(1S)-1-Propyl-2-nitroxyethyl]-2-oxothiazolidin-4-yl-carboxamide], the “CI(60)” value (Collateral Vessel [2]) was greater than 10.

For CCCC[C@@H](CO[N+](=O)[O-])NC(=O)[C@@H]1CSC(=O)N1 [Example 6, (4R)-N-[(1S)-1-Butyl-2-nitroxyethyl]-2-oxothiazolidin-4-yl-carboxamide], the “CI(60)” value (Collateral Vessel [2]) was greater than 10.

In the case of CC(C)C[C@@H](CO[N+](=O)[O-])NC(=O)[C@@H]1CSC(=O)N1 [Example 8, (4R)-N-[(1S)-1-Isobutyl-2-nitroxyethyl]-2-oxothiazolidin-4-yl-carboxamide], the “CI(60)” value (Collateral Vessel [2]) was greater than 10.
